The target of test [1] is T1, hTREX1 (Homo sapiens, UniProt Q9NSU2).
T1 construct: host or cells: HCT116 dual cells
T1 sequence (Q9NSU2 1-314): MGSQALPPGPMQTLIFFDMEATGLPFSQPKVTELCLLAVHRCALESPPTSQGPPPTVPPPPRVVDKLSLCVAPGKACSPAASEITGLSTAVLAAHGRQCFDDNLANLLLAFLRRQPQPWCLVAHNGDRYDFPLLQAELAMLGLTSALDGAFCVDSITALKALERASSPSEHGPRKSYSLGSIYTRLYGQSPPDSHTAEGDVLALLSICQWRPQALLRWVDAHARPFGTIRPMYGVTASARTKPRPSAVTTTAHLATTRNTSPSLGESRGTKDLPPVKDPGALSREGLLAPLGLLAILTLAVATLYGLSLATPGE
Kind of test: hTREX1 HCT116 Cell Assay (HCT116 dual cells, Lucia luciferase reporter of Type I interferon induction). Format: cell-based. To be noted: TREX1i 4 h before pBR322/BstNI transfection, read after 48 h. An excerpt: HCT116 dual cells (Invivogen, San Diego, CA, USA) are derived from the human HCT116 colorectal carcinoma cell line. Cells have been selected for the stable integration of SEAP and Luciferase reporter genes, which expression is under the control of 5 tandem response elements for NF-KB/AP1 and STAT1/STAT2, respectively. The cell line was used to monitor Type I interferon induction and subsequent signaling by measuring the activity of the Lucia luciferase secreted in the culture medium.
HCT116 cells were plated in 96-well plate(s) at 40,000 cells/well in 100 uL DMEM supplemented with 10% FBS and 25 mM Hepes (pH 7.2-7.5). After overnight settling, cells were treated with TREX1i for 4 h (maximum DMSO fraction was 0.1%) before 1 ug/mL pBR322/BstNI restriction digest (New England Biolabs, Ipswich, MA, USA) was transfected with Lipofectamine LTX (ThermoFisher, Grand Island, NY, USA), according to product manual recommendations. Briefly, Lipofectamine LTX (0.35 uL/well) was diluted in OptiMEM (5 uL/well). pBR322/BstNI (100 ng/well) was diluted in OptiMEM (5 uL/well) before Plus reagent (0.1 uL/100 ng DNA) was added. After 5 min incubation at room temperature, the DNA mixture was mixed dropwise with the diluted Lipofectamine LTX. After an additional 10 min incubation, the transfection mix (10 uL/well) was added to the cells. Cells were maintained at 37 C for 48 h before monitoring the Lucia Luciferase activity from the cell culture medium.

Test [2] addresses T2, full length human TREX1 (Homo sapiens, UniProt Q9NSU2).
T2 construct: N-terminally His-Tev tagged full length human TREX1; made in house; host or cells: E. coli
T2 sequence (Q9NSU2 1-314): T1 sequence (Q9NSU2 1-314)
Kind of test: hTREX1 Biochemical Assay (fluorescence, dsDNA substrate degradation). To be noted: biochemical, read-out: hTREX1 IC50. The method, boiled down:
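Cleavage of 60 nM TEX615/quencher-labelled dsDNA in pH 7.4 Tris buffer with 5 mM MgCl2, 1.0% DMSO, run 18 hours at 25° C, EDTA-quenched; fluorescence read-out.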

The target of test [3] is T3, full length mouse TREX1 (Mus musculus, UniProt Q91XB0).
T3 construct: N-terminally His-Tev tagged full length mouse TREX1; made in house; host or cells: E. coli
T3 sequence (Q91XB0 1-314): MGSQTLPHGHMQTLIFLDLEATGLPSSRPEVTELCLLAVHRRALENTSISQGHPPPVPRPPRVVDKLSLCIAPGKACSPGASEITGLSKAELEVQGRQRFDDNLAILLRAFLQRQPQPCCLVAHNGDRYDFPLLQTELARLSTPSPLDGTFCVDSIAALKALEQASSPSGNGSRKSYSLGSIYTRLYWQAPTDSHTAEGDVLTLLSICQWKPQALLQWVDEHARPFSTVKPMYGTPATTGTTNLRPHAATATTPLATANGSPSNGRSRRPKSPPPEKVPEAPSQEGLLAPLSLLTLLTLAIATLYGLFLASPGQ
Kind of test: mTREX1 Biochemical Assay (fluorescence, dsDNA substrate degradation). To be noted: biochemical, read-out: mTREX1 IC50. The method, boiled down:
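Reaction run 18 h at 25° C. with 60 nM TEX615/quencher-labelled dsDNA and 6 pM mouse TREX1 in Tris buffer (pH 7.4, 5 mM MgCl2, 1.0% DMSO), enzyme having sat 4 h with compound across 10 concentrations. EDTA quench; substrate degradation measured as fluorescence increase.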

In test [4] the target is T4, human TREX2 (residues M44-A279) (Homo sapiens, UniProt Q9BQ50).
T4 construct: human TREX2 (residues M44-A279, expressed in E. coli); made in house; host or cells: E. coli
T4 sequence (Q9BQ50 44-279 isoform Q9BQ50-1): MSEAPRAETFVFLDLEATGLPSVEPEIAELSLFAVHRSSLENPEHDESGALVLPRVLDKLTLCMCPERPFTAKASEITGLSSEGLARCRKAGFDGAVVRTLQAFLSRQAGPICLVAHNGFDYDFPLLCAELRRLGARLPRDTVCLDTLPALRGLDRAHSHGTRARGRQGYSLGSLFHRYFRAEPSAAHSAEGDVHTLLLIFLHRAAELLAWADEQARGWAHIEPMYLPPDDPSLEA
Kind of test: hTREX2 Biochemical Assay (fluorescence, dsDNA substrate degradation). To be noted: biochemical selectivity for hTREX1 vs hTREX2. The method, boiled down:
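N-His-Tev E. coli enzyme (50 pM) pre-incubated with compound 4 h at 25 °C, then 60 nM TEX615/quencher dsDNA added; 18 h at 25 °C, pH 7.4 Tris buffer with 5 mM MgCl2, 1.0% DMSO. EDTA-quenched; fluorescence 570 ex/615 em from liberated fluorophore, 10-point dose-response.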

As usually defined, the IC50 is the concentration that gives 50% inhibition. In test [1], `Cc1cnc(C)c(C(c2cc(F)ccc2C#N)C(C)c2nc(C(=O)Nc3cnoc3)c(O)c(=O)n2C)n1` (single isomer, unassigned) [Example 119 D1E1] had an IC50 below 10 nM.

For the molecule `Cc1cc(C(c2ccccc2C#N)C(C)c2nc(C(=O)Nc3cnoc3)c(O)c(=O)n2C)ccn1` (single isomer, unassigned) [Example 6 D2E2], the IC50 was 1 to 10 nM in test [2], above 10 nM in test [3] and above 100 nM in test [1].

On to `CC(c1nc(C(=O)Nc2cnoc2)c(O)c(=O)n1C)C(c1cnn(C)c1)c1cccnc1C#N` (single isomer, unassigned) [Example 7 D1E1], for which the values for the concentration for half-maximal inhibition (IC50) in test [2], in test [3] and in test [1] were 1 to 10 nM, above 10 nM and above 100 nM, respectively.

On to `CC(c1nc(C(=O)Nc2cnoc2)c(O)c(=O)n1C)C(c1cnn(CC(C)(C)O)c1)c1ccccc1C#N` (single isomer, unassigned) [Example 36 D1E1], for which the IC50 in test [2] is below 1 nM; in test [3] it was 1 to 10 nM; in test [1], above 100 nM.

For `CCn1ncc(C(c2ccccc2C#N)C(C)c2nc(C(=O)Nc3cnoc3)c(O)c(=O)n2C)c1C` (single isomer, unassigned) [Example 68 D1E1], the figures for the IC50 in test [2], in test [3] and in test [1] were below 1 nM, below 1 nM and below 10 nM, respectively.

In the case of `CC(c1nc(C(=O)Nc2cnoc2)c(O)c(=O)n1C)C(c1ccccc1C#N)c1c(C#N)cnn1C` (single isomer, unassigned) [Example 52 D1E1], the IC50 in test [2] was 1 to 10 nM; in test [3], above 10 nM; in test [1], 10 to 100 nM.

For the molecule `Cc1nn(C)cc1C(c1ccccc1C#N)C(C)c1nc(C(=O)Nc2cnoc2)c(O)c(=O)n1C` (single isomer, unassigned) [Example 3 D2E2], the results for the IC50 in test [2], in test [3] and in test [1] were 1 to 10 nM, above 10 nM and above 100 nM, respectively.

As to `CC(c1nc(C(=O)Nc2cnoc2)c(O)c(=O)n1C)C(c1cnn(C)c1)c1ccncc1C#N` (single isomer, unassigned) [Example 8 D1E2], the IC50 in test [2] was below 1 nM; in test [3], 1 to 10 nM; in test [1], 10 to 100 nM.

Turning to `CC(c1nc(C(=O)Nc2cnoc2)c(O)c(=O)n1C)C(c1cnn(C)c1)c1c(C#N)cccc1C#N` (single isomer, unassigned) [Example 19 D1E2], the IC50 in test [2] was below 1 nM; in test [3] it was 1 to 10 nM; in test [1], below 10 nM.

For `COC(C)(C)Cn1cc(C(c2ccccc2C#N)C(C)c2nc(C(=O)Nc3cnoc3)c(O)c(=O)n2C)cn1` (single isomer, unassigned) [Example 37 D1E1], the IC50 was below 1 nM in test [2], 1 to 10 nM in test [3] and 10 to 100 nM in test [1].

In the case of `Cc1c(C(c2ccccc2C#N)C(C)c2nc(C(=O)Nc3cnoc3)c(O)c(=O)n2C)cnn1C` (single isomer, unassigned) [Example 4 D1E1], the IC50 in test [2] was below 1 nM; in test [3] it was 1 to 10 nM; in test [1], 10 to 100 nM.

As to `CC(c1nc(C(=O)Nc2cnoc2)c(O)c(=O)n1C)C(c1ccccc1C#N)c1cn(C)nc1C#N` (single isomer, unassigned) [Example 10 D1E2], the IC50 was 1 to 10 nM in test [2], above 10 nM in test [3] and 10 to 100 nM in test [1].

Turning to `CC(c1nc(C(=O)Nc2cnoc2)c(O)c(=O)n1C)C(c1cnn(CCCN(C)C)c1)c1ccccc1C#N` (single isomer, unassigned) [Example 34 D1E1], the IC50 in test [2] is below 1 nM; in test [3] it was 1 to 10 nM; in test [1], above 100 nM.

As to `CC(c1nc(C(=O)Nc2cnoc2)c(O)c(=O)n1C)C(c1cnn(CCN2CCNCC2)c1)c1ccccc1C#N` (single isomer, unassigned) [Example 31 D1E1], the IC50 in test [2] is below 1 nM; in test [3], 1 to 10 nM; in test [1], above 100 nM.

`CC(c1nc(C(=O)Nc2cnoc2)c(O)c(=O)n1C)C(c1cnn(C)c1)c1cc(F)ccc1Cl` (single isomer, unassigned) [Example 61 D1E1]: the values for the 50% inhibitory concentration (IC50) in test [2], in test [3] and in test [1] were below 1 nM, 1 to 10 nM and below 10 nM, respectively.

Take `Cc1nn(C)cc1C(c1cc(F)ccc1Cl)C(C)c1nc(C(=O)Nc2cnoc2)c(O)c(=O)n1C` (single isomer, unassigned) [Example 62 D2E2]: the IC50 in test [2] was below 1 nM; in test [3], 1 to 10 nM; in test [1], below 10 nM.

As for `Cc1ccc(C(c2ccccc2C#N)C(C)c2nc(C(=O)Nc3cnoc3)c(O)c(=O)n2C)cn1` (single isomer, unassigned) [Example 5 D2E2], the IC50 was 1 to 10 nM in test [2], above 10 nM in test [3] and above 100 nM in test [1].

Take `CC(c1nc(C(=O)Nc2cnoc2)c(O)c(=O)n1C)C(c1cnn(CC2COC2)c1)c1cc(F)ccc1Cl` (single isomer, unassigned) [Example 94 D1E2]: the IC50 in test [2] and in test [3] was above 10 nM in each case. For the same molecule, the “hTREX1 vs hTREX2 selectivity” value in test [4] is “A (A = <25 fold selective for hTREX1)”.

With `CC(c1nc(C(=O)Nc2cnoc2)c(O)c(=O)n1C)C(c1cnn(CC(C)(C)O)c1)c1ccccc1C#N` (single isomer, unassigned) [Example 36 D2E1], the IC50 in test [2] and in test [3] was above 10 nM each time. In addition, the “hTREX1 vs hTREX2 selectivity” value in test [4] was “B (B = 25 to 50-fold selective for hTREX1)”.

Regarding `Cc1nccc(C(c2ccccc2C#N)C(C)c2nc(C(=O)Nc3cnoc3)c(O)c(=O)n2C)n1` (single isomer, unassigned) [Example 83 D2E2], the half-maximal inhibitory concentration (IC50) in test [2] and in test [3] was above 10 nM each time. For the same molecule, the “hTREX1 vs hTREX2 selectivity” value in test [4] is on record as “A (A = <25 fold selective for hTREX1)”.

In the case of `CC(c1nc(C(=O)Nc2cnoc2)c(O)c(=O)n1C)C(c1cnn(CC2COC2)c1)c1ccccc1Cl` (single isomer, unassigned) [Example 88 D2E1], the IC50 in test [2] and in test [3] was above 10 nM in each case. Moreover, the “hTREX1 vs hTREX2 selectivity” value in test [4] is “A (A = <25 fold selective for hTREX1)”.

For `CC(c1nc(C(=O)Nc2cnoc2)c(O)c(=O)n1C)C(c1cnn(C(F)(F)F)c1)c1ccccc1C#N` (single isomer, unassigned) [Example 151 D1E2], the IC50 in test [2] and in test [3] was above 10 nM each time. The “hTREX1 vs hTREX2 selectivity” value in test [4] is reported as “A (A = <25 fold selective for hTREX1)”.

Regarding `CC(c1nc(C(=O)Nc2cnoc2)c(O)c(=O)n1C)C(c1cnccn1)c1ccccc1C#N` (single isomer, unassigned) [Example 66 D1E1], the IC50 in test [2] and in test [3] was below 1 nM throughout. Also, the “hTREX1 vs hTREX2 selectivity” value in test [4] is given as “B (B = 25 to 50-fold selective for hTREX1)”.

For the origin of these results see patent US20240246946A1, “MODULATORS OF TREX1” (Constellation Pharmaceuticals, Inc., priority 2021, published 2024).
